{"source": "patent US6331555A", "about": "“Treatment of platelet derived growth factor related disorders such as cancers” (priority 1999, dated 2001)", "key": {"C6 cells [1]": {"test_system": "C6 cells", "experiment": "Intracerebral C6 tumor, athymic rats, survival", "format": "in vivo, rat", "details": "IC C6, athymic rats", "protocol": "FIG. 5. In two separate experiments, C6 cells (5×10^4 cells in 20 μL [Expt #1] or 5 μL [Expt #2]) were implanted into the cerebrum of athymic rats. […] V=vehicle control. n=7 to 8 animals per group. * P=0.0002; ** P=0.0003 compared to vehicle control.\nFor the rat IC model, rats (Wistar, Sprague Dawley, Fisher 344, or athymic R/Nu; approximately 200 g) were anesthetized by an IP injection of 100 mg/kg Ketaset (ketamine hydrochloride; Aveco, Fort Dodge, Iowa) and 5 mg/kg Rompun (xylazine, 2% solution; Bayer, Germany). After onset of anesthesia, the scalp was shaved and the animal was oriented in a stereotaxic apparatus (Stoelting, Wood Dale, Ill.). The skin at the incision site was cleaned 3 times with alternating swabs of 70% ethanol and 10% Povidone-Iodine. A median 1.0-1.5 cm incision was made in the scalp using a sterile surgical blade. The skin was detached slightly and pulled to the sides to expose the sutures on the skull surface. A dental drill (Stoelting, Wood Dale, Ill.) was used to make a small (1-2 mm diameter) burrhole in the skull approximately 1 mm anterior and 2 mm lateral to the bregma. The cell suspension was drawn into a 50 μL Hamilton syringe fitted with a 23 or 25 ga standard bevel needle. […]"}, "[2]": {"experiment": "Ex vivo conversion of A10 to B11 in human plasma"}, "in vivo [3]": {"experiment": "in vivo", "details": "mouse, ip", "protocol": "The LD50 was calculated from a plot of % mortality versus dose (log M) using a four parameter logistic equation."}, "in vivo [4]": {"experiment": "in vivo", "design": "species or system rat", "protocol": "(§1) Plasma was prepared and frozen in liquid nitrogen. Tissues and organs were resected and immediately frozen in liquid nitrogen. After the addition of an internal standard, plasma samples were acidified with HCl and extracted with acetonitrile. The acetonitrile fraction was evaporated to dryness in a vacuum centrifuge with heating and redissolved in methanol. Tissue and organ samples were homogenized according to the weight ratio of 1:5 (w:v) in 50 mM Tris-HCl, pH 7.4, at 20,000 rev/min, using a tissue homogenizer (Brinkmann Polytron Model PT3000). After the addition of an internal standard, the homogenate was acidified with HCl and then extracted with acetonitrile. The acetonitrile fraction was then extracted with an equal volume of diethyl ether. The ether fraction was evaporated to dryness in a vacuum centrifuge with heating and redissolved in methanol.\nSamples for HPLC analysis were injected onto a Hewlett Packard Hypersil 5-μm C18 cartridge column (100×4.6 mm). The mobile phase was methanol:35 mM KH2 PO4 (pH 4.5) 55:45 containing 4 mM triethylamine. The flow rate was 1.2 mL/min. The compounds were monitored by UV absorption at 254 nm using a Hewlett-Packard diode-array detector (HP Model 1090). Plasma and tissue concentrations were determined from standard curves using peak area for quantitation. […] The internal standard used was 5-methyl-pyrazole-4-carboxylic acid-(4-trifluoromethyl)-anilide.\nTable XXII. […] Plasma and brain samples were prepared and analyzed by HPLC as described in Appendix 6. All results were calculated by the method of internal standardization. NT= not tested, ND= not detected."}, "C6 cells [5]": {"test_system": "C6 cells", "experiment": "CTL generation in tumor-bearing rats (MLTC)", "format": "in vivo, rat", "details": "8.4 mg/kg/day", "protocol": "Wistar rats received SC implants of C6 cells on day 0. […] The control group was not treated after tumor implantation. On day 21, the animals were sacrificed and the spleens were removed for in vitro analyses. Splenocytes were stimulated with ConA, LPS, and alloantigen (DA rat spleen cells) as in the murine studies.\nThe spleen cells from Wistar rats were also assayed for the generation of C6-specific CTL in the MLTC and the results summarized in Table XXI. Spleen cells from tumor-bearing, untreated animals mounted a vigorous CTL response (35% specific lysis at E:T=100:1), while cells from non-tumor bearing control rats mounted a weak response (13% specific lysis at E:T=100:1). Similar to the studies in BALB/c mice, it appeared that the vehicle inhibited the generation of CTL in a 7-day culture."}, "physchem": {"experiment": "physchem", "source_text": "PBTE consists of a solution of 3% w/v benzyl alcohol, 8% w/v polysorbate 80, and 65% w/v polyethylene glycol (MW=300 daltons) in absolute ethanol. PBTE:D5W consists of PBTE diluted 1:1 in a solution of 5% dextrose in water. […] The solubility of the other compounds described herein can be obtained using standard techniques."}, "[6]": {"experiment": "Ex vivo conversion of A10 to B11 in rat plasma", "protocol": "as §1\nSamples for HPLC analysis were injected onto a Hewlett Packard Hypersil 5-μm C18 cartridge column (100×4.6 mm). The mobile phase was methanol:35 mM KH2 PO4 (pH 4.5) 55:45 containing 4 mM triethylamine. The flow rate was 1.2 mL/min. The compounds were monitored by UV absorption at 254 nm using a Hewlett-Packard diode-array detector (HP Model 1090). Plasma and tissue concentrations were determined from standard curves using peak area for quantitation. […]"}}}
{"smiles": "Cc1oncc1C(=O)Nc1ccc(C(F)(F)F)cc1", "note": "[Compound A10, 5-methylisoxazole-4 carboxylic acid-(4-trifluromethyl)-anilide]", "values": [{"measurement": "survival", "setting": "C6 cells [1]", "value": "slight but significant positive effect on the survival"}, {"measurement": "time of complete conversion to B11", "setting": "[2]; 25° C., human plasma", "value": "≤ 21", "unit": "h"}, {"measurement": "A10 remaining, co-incubation of B11 and A10", "setting": "[2]; fresh human plasma, after 21 hr", "value": "No A10 was detected after 21 hr"}, {"measurement": "conversion to B11 in heat-inactivated plasma", "setting": "[2]; human, 15 min at 60° C.", "value": "does not occur"}, {"measurement": "LD50", "setting": "in vivo [3]", "value": 145, "unit": "mg/kg"}, {"measurement": "time detected in plasma", "setting": "in vivo [4]; IP A10 80 mg/kg single dose", "value": "up to 8 hr"}, {"measurement": "time by which A10 converted to B11", "setting": "in vivo [4]; IP A10 80 mg/kg, first time point analyzed", "value": "≤ 2", "unit": "h"}, {"measurement": "Cmax", "setting": "in vivo [4]; rat, plasma, ip, 80 mg/kg", "value": 5000, "unit": "ng/mL"}, {"measurement": "CTL generation", "setting": "C6 cells [5]", "value": "did not overcome the inhibitory effect of the vehicle in immunocompetent rats"}, {"measurement": "CTL activity", "setting": "C6 cells [5]; Tumor stimulus", "value": 0}, {"measurement": "solubility", "setting": "physchem; pbte, organic solvent or mixture", "value": "~60", "unit": "mg/mL"}, {"measurement": "solubility", "setting": "physchem; pbte:d5w", "value": "~5", "unit": "mg/mL"}, {"measurement": "solubility in water", "setting": "physchem; water", "value": "not very soluble in water"}, {"measurement": "time of complete conversion to B11", "setting": "[6]; 37° C., rat plasma", "value": "≤ 2", "unit": "h"}, {"measurement": "conversion to B11 in heat-inactivated plasma", "setting": "[6]; rat, 15 min at 60° C.", "value": "does not occur"}]}
